According to US20250215029A1 (Recludix Pharma, Inc., priority 2022, published 2025):

Columns and labels:
pY705-STAT3 in PBMC = target: T1, pY705-STAT3 in PBMC (Homo sapiens, UniProt P40763); test: MSD-pSTAT-PBMC Assay (pSTAT3, IL-6 stimulated); type: cell-based; details: PBMC, compound 3 hrs, then 10 ng/mL IL-6 for 10 min; Table 1114; read-out: pSTAT3
T1 construct: Cryopreserved Peripheral Blood Mononuclear Cells (PBMC) are from AllCells; host or cells: cryopreserved PBMC
How it was run: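 Cells are preincubated with compound for 3 hrs, then stimulated for 10 min, IL-4 at 1 ng/mL driving STAT6 phosphorylation and IL-6 at 10 ng/mL driving STAT3. Phospho-STAT in lysates is quantified by MSD immunoassay, and IC50 is fitted after subtracting unstimulated wells.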

pY641-STAT6 in PBMC = target: T2, pY641-STAT6 in PBMC (Homo sapiens, UniProt P42226); test: MSD-pSTAT-PBMC Assay (pSTAT6, IL-4 stimulated); type: cell-based; details: PBMC, compound 3 hrs, then 1 ng/mL IL-4 for 10 min; Table 1114; read-out: pSTAT6
T2 construct: Cryopreserved Peripheral Blood Mononuclear Cells (PBMC) are from AllCells; host or cells: cryopreserved PBMC
T2 sequence (P42226 1-847): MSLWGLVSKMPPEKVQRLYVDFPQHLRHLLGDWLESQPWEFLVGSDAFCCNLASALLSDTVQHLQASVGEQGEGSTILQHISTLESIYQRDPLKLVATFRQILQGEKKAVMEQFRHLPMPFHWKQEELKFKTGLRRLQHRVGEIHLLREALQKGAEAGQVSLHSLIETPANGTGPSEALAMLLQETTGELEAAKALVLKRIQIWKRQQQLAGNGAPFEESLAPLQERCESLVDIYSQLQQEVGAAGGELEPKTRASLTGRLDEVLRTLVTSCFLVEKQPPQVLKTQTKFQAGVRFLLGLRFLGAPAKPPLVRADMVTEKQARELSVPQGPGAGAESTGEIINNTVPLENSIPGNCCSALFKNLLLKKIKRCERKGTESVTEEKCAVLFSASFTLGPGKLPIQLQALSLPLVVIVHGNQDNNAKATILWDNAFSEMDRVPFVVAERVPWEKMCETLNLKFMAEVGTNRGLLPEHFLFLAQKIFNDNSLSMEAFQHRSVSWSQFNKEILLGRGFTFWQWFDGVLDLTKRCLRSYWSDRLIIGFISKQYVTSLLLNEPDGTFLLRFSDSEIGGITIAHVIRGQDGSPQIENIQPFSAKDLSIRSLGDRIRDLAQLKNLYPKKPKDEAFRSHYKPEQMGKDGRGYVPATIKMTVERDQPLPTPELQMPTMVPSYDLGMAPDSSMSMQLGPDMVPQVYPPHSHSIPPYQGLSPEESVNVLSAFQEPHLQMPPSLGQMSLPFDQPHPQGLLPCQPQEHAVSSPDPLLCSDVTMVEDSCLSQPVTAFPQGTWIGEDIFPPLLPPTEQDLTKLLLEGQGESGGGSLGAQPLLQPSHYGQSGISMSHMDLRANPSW
How it was run: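 PBMC (human, cryopreserved, overnight recovery) + cpd 3 hrs → IL-6 10 ng/mL (STAT3) or IL-4 1 ng/mL (STAT6) ×10 min → lysis with protease/phosphatase inhibitors → MSD capture/phospho detection. IC50, variable slope, DMSO-normalized.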

T1 sequence (P40763 whole entry): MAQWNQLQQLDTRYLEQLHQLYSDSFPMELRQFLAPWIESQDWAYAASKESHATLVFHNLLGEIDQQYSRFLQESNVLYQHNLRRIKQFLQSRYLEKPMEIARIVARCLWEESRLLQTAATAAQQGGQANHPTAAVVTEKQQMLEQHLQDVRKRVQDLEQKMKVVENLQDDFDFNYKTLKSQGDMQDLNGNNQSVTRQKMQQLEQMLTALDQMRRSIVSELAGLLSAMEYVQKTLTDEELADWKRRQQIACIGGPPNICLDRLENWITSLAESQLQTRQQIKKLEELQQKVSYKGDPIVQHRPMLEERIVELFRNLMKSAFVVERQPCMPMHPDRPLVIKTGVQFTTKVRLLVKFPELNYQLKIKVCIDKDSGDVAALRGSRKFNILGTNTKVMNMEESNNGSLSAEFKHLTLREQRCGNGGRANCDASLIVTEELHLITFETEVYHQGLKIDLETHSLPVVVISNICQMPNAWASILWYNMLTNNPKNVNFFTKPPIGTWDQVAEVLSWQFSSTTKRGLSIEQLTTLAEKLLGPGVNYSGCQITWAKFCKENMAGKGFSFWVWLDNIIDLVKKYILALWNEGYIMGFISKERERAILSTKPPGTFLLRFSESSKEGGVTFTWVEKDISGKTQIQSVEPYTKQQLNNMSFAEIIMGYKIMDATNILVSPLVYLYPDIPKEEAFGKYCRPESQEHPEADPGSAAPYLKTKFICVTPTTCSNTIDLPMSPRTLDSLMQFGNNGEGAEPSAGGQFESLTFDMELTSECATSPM

Structure (SMILES) | IC50 (pY705-STAT3 in PBMC) [µM] | IC50 (pY641-STAT6 in PBMC) [µM]
CC(C)OC(=O)OCOP(=O)(Cc1ccc2sc(C(=O)N[C@H]3CCCC[C@H]4CC[C@@H](C(=O)N5C[C@@H](C#N)[C@H](c6ccccc6)C5)N4C3=O)cc2c1)OCOC(=O)OC(C)C (single isomer, unassigned) [Compound 148, ((((2-(((3S,6S,10aS)-3-((3S,4R or 3R,4S)-3-cyano-4-phenylpyrrolidine-1-carbonyl)-5-oxodecahydro-pyrrolo[1,2-a]azocin-6-yl)carbamoyl)benzo[b]thiophen-5-yl)methyl)phosphoryl)bis(oxy))bis(methylene) diisopropyl bis(carbonate)] | > 3 | 0.1 to 1
CC(C)(C)C(=O)SCCOP(=O)(Cc1ccc2sc(C(=O)N[C@H]3CCCC[C@H]4CC[C@@H](C(=O)N5C[C@@H](C#N)[C@H](c6ccccc6)C5)N4C3=O)cc2c1)OCCSC(=O)C(C)(C)C (single isomer, unassigned) [Compound 149, S,S′-(((((2-(((3S,6S,10aS)-3-((3S,4R or 3R,4S)-3-cyano-4-phenylpyrrolidine-1-carbonyl)-5-oxodecahydro-pyrrolo[1,2-a]azocin-6-yl)carbamoyl)benzo[b]thiophen-5-yl)methyl)phosphoryl)bis (oxy))bis(ethane-2,1-diyl))bis(2,2-dimethyl-propanethioate)] | > 3 | > 3
CCCC(=O)SCCOP(=O)(OCCSC(=O)CCC)C(F)(F)c1ccc2sc(C(=O)N[C@H]3CCCC[C@H]4CC[C@@H](C(=O)N5C[C@@H](C#N)[C@H](c6ccccc6)C5)N4C3=O)cc2c1 (single isomer, unassigned) [Compound 152, S,S′-(((((2-(((3S,6S,10aS)-3-((3S,4R or 3R,4S)-3-cyano-4-phenylpyrrolidine-1-carbonyl)-5-oxodecahydro-pyrrolo[1,2-a]azocin-6-yl)carbamoyl)benzo[b]thiophen-5-yl)difluoromethyl)phosphoryl)bis(oxy))bis(ethane-2,1-diyl)) dibutanethioate] | 1 to 3 | 0.1 to 1
CC(C)CC(=O)SCCCCOP(=O)(OCCCCSC(=O)CC(C)C)C(F)(F)c1ccc2sc(C(=O)N[C@H]3CCCC[C@H]4CC[C@@H](C(=O)N5CC(C#N)C(c6ccccc6)C5)N4C3=O)cc2c1 (single isomer, unassigned) [Compound 153, S,S′-(((((2-(((3S,6S,10aS)-3-((3S,4R or 3R,4S)-3-cyano-4-phenylpyrrolidine-1-carbonyl)-5-oxodecahydro-pyrrolo[1,2-a]azocin-6-yl)carbamoyl)benzo[b]thiophen-5-yl)difluoromethyl)phosphoryl)bis (oxy))bis(butane-4,1-diyl)) bis(3-methylbutane thioate)] | > 3 | > 3
CC(C)CC(=O)SCCOP(=O)(OCCSC(=O)CC(C)C)C(F)(F)c1ccc2sc(C(=O)N[C@H]3CCCC[C@H]4CC[C@@H](C(=O)N5C[C@@H](C#N)[C@H](c6cc[nH]c(=O)c6)C5)N4C3=O)cc2c1 (single isomer, unassigned) [Compound 154, S,S′-(((((2-(((3S,6S,10aS)-3-((3S,4R or 3R,4S)-3-cyano-4-(2-oxo-1,2-dihydropyridin-4-yl)pyrrolidine-1-carbonyl)-5-oxodecahydro-pyrrolo[1,2-a]azocin-6-yl)carbamoyl)benzo [b]thiophen-5-yl)difluoromethyl)phosphoryl)bis (oxy))bis(ethane-2,1-diyl)) bis(3-methylbutane thioate)] | 0.1 to 1 | 0.1 to 1
CC(C)CC(=O)SCCOP(=O)(OCCSC(=O)CC(C)C)C(F)(F)c1ccc2ccc(C(=O)N[C@H]3CCCC[C@H]4CC[C@@H](C(=O)N5C[C@H](c6cc[nH]c(=O)c6)[C@@H](C#N)C5)N4C3=O)cc2c1 (single isomer, unassigned) [Compound 155, S,S′-(((((7-(((3S,6S,10aS)-3-((3R,4S or 3S,4R)-3-cyano-4-(2-oxo-1,2-dihydropyridin-4-yl)pyrrolidine-1-carbonyl)-5-oxodecahydro-pyrrolo[1,2-a]azocin-6-yl)carbamoyl)naphthalen-2-yl)difluoromethyl)phosphoryl)bis(oxy))bis(ethane-2,1-diyl)) bis(3-methylbutane thioate)] | 0.1 to 1 | < 0.1
CC(C)C(=O)SCCOP(=O)(OCCSC(=O)C(C)C)C(F)(F)c1ccc2sc(C(=O)N[C@H]3CCCCC4CC[C@@H](C(=O)N5C[C@H](c6ccccc6)[C@@H](C#N)C5)N4C3=O)cc2c1 (single isomer, unassigned) [Compound 156, S,S′-(((((2-(((3S,6S,10aS)-3-((3S,4R or 3R,4S)-3-cyano-4-phenylpyrrolidine-1-carbonyl)-5-oxodecahydro-pyrrolo[1,2-a]azocin-6-yl)carbamoyl)benzo[b]thiophen-5-yl)difluoromethyl)phosphoryl)bis(oxy))bis(ethane-2,1-diyl)) bis(2-methylpropane-thioate)] | 0.1 to 1 | < 0.1
CC(C)(C(=O)SCCOP(=O)(OCCSC(=O)C(C)(C)C(F)(F)F)C(F)(F)c1ccc2sc(C(=O)N[C@H]3CCCC[C@H]4CC[C@@H](C(=O)N5C[C@@H](C#N)[C@H](c6ccccc6)C5)N4C3=O)cc2c1)C(F)(F)F (single isomer, unassigned) [Compound 159, S,S′-(((((2-(((3S,6S,10aS)-3-((3S,4R or 3R,4S)-3-cyano-4-phenylpyrrolidine-1-carbonyl)-5-oxodecahydro-pyrrolo[1,2-a]azocin-6-yl)carbamoyl)benzo[b]thiophen-5-yl)difluoromethyl)phosphoryl)bis(oxy))bis(ethane-2,1-diyl)) bis(3,3,3-trifluoro-2,2-dimethylpropane-thioate)] | > 3 | > 3
CC(C)CC(=O)SCCOP(=O)(OCCSC(=O)CC(C)C)C(F)(F)c1ccc2sc(C(=O)N[C@H]3CCCC(C)[C@H]4CC[C@@H](C(=O)N5C[C@H](c6cc[nH]c(=O)c6)[C@@H](C#N)C5)N4C3=O)cc2c1 (single isomer, unassigned) [Compound 162, S,S′-(((((2-(((3S,6S,10aR)-3-((3R,4S or 3S,4R)-3-cyano-4-(2-oxo-1,2-dihydropyridin-4-yl)pyrrolidine-1-carbonyl)-10-methyl-5-oxodeca-hydropyrrolo[1,2-a]azocin-6-yl)carbamoyl)benzo [b]thiophen-5-yl)difluoromethyl)phosphoryl)bis(oxy))bis(ethane-2,1-diyl)) bis(3-methylbutane thioate)] | 0.1 to 1 | 0.1 to 1
CC(C)CC(=O)SCCOP(=O)(OCCSC(=O)CC(C)C)C(F)(F)c1ccc2sc(C(=O)N[C@H]3CCCCC4CC[C@@H](C(=O)N5C[C@H](c6ccccc6)[C@@H](C#N)C5)N4C3=O)cc2c1 (single isomer, unassigned) [Compound 163, S,S′-(((((2-(((3S,6S,10aS)-3-((3R,4S or 3S,4R)-3-cyano-4-phenylpyrrolidine-1-carbonyl)-5-oxodecahydro-pyrrolo[1,2-a]azocin-6-yl)carbamoyl)benzo[b]thiophen-5-yl)difluoromethyl)phosphoryl)bis(oxy))bis(ethane-2,1-diyl)) bis(3-methylbutane thioate)] | > 3 | < 0.1
CC(C)OC(=O)OCOP(=O)(OCOC(=O)OC(C)C)[C@H](F)c1ccc2sc(C(=O)N[C@H]3CCCC[C@H]4CC[C@@H](C(=O)N5C[C@H](c6cc[nH]c(=O)c6)[C@@H](C#N)C5)N4C3=O)cc2c1 (single isomer, unassigned) [Compound 164] | 0.1 to 1 | 0.1 to 1
CC(C)CC(=O)SCCOP(=O)(OCOC(=O)OC(C)C)C(F)(F)c1ccc2sc(C(=O)N[C@H]3CCCC[C@H]4CC[C@@H](C(=O)N5C[C@H](c6ccccc6)[C@@H](C#N)C5)N4C3=O)cc2c1 (single isomer, unassigned) [Compound 166, S-(2-((((2-(((3S,6S,10aS)-3-((3R,4S or 3S,4R)-3-cyano-4-phenylpyrrolidine-1-carbonyl)-5-oxodecahydropyrrolo [1,2-a]azocin-6-yl)carbamoyl)benzo[b]thiophen-5-yl)difluoromethyl) (((isopropoxycarbonyl)oxy)methoxy)phosphoryl)oxy)ethyl)-3-methylbutane thioate] | 0.1 to 1 | < 0.1
